Experimental data: patent publication US12310934B2, “Methods of treatment of spontaneous preterm birth” (The Regents of the University of California, priority 2019, dated 2025)
“Also recorded” adds a separate entry of the source.

Legend:
preterm birth = conditions: pregnant women, literature studies; cited from earlier work
[1] = system: LPS-induced fetal wastage in pregnant mice; experiment: LPS-induced inflammation mouse model of fetal wastage; format: in vivo; conditions: 3× drug + LPS-100 compared with LPS-100 alone
From the text: FIG. 3A and FIG. 3B depict results from LPS-induced inflammation mouse model of fetal wastage. Circles represent results from independent mouse pregnancies. Error bars represent mean ±SD. Comparisons were made using the Student's two-sided t-test. […] FIG. 3B: The LPS-100 group compared to the P4 positive control group (3×P4+LPS-100) and the lansoprazole treatment group (3×lansoprazole+LPS-100).
Statistical Analysis. Reversal scores were generated for sPTB-drug pairs using a non-parametric, rank-based method based on the Kolgomorov-Smirnov test. Reversal score p-values were obtained by comparing to a distribution of 100,000 random scores and then adjusted via FDR for multiple comparisons. […] To ensure that the significance of the score is specific to the drug in question, for one candidate drug, lansoprazole, we also compared 1,000 random input signatures to the lansoprazole profile. […] For testing the distributions in the mouse model studies, comparisons were made using the 2-tailed Student's t-test and adjusted via FDR for multiple comparisons. A P value less than 0.05 was considered significant.
Inflammation-induced mouse model validation of lansoprazole. Despite having the highest reversal score, cefotaxime shares few protein interactions. Lansoprazole has the next highest reversal score. Moreover, lansoprazole is available over-the-counter, whereas cefotaxime requires a prescription. […]

| Structure (SMILES) | rate of preterm birth in past studies (preterm birth) | number of viable fetuses at E12.5 [1] | number of viable fetuses at E12.5 ([1]; listed as P4) |
| --- | --- | --- | --- |
| Clc1ccccc1C(c1ccccc1)(c1ccccc1)n1ccnc1 [clotrimazole] | significant reduction in the rate of PTB |  |  |
| Nc1nc2ncc(CNc3ccc(C(=O)N[C@@H](CCC(=O)O)C(=O)O)cc3)nc2c(=O)[nH]1 [folic acid] | possible reduction of preterm birth |  |  |
| Cc1c(OCC(F)(F)F)ccnc1C[S+]([O-])c1nc2ccccc2[nH]1 (stereo not drawn) [lansoprazole] |  | significantly effective in recovering the number of viable fetuses; also recorded: significantly (P<0.05) increase the number of viable fetuses |  |
| CN(C)C(=N)N=C(N)N [metformin] | reduce the rate of PTB compared with placebo |  |  |
| CC(=O)[C@H]1CC[C@H]2[C@@H]3CCC4=CC(=O)CC[C@]4(C)[C@H]3CC[C@]12C [progesterone] | effective in reducing the rate of sPTB |  | showed some effectiveness at recovering the number of viable fetuses |
